Columns and labels:
[1] = tested on: interferon regulatory factor (IRF) pathway in THP-1 dual cells; test: THP-1 Dual Reporter Assay, IRF pathway (luciferase reporter); assay type: cell-based; details: Homo sapiens, THP1-Dual, 18 h of stimulation, luminescence
Summary of the method: (§1)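 THP-1 dual cells stimulated 18 h with STING agonist; medium then sampled. IRF pathway: luciferase (ISG54 promoter/ISRE) read as luminescence immediately after reagent addition. NF-κB pathway: SEAP (IFN-β minimal promoter/NF-κB elements) developed 2 h at 37 °C, absorbance at 630 nm.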

human STING = human STING (Homo sapiens, UniProt Q86WV6); test: Fluorescence Thermal Shift assay; assay type: binding; details: 50 μM compound; STING 0.1 mg/ml; 20 minutes preincubation; read-out: [hSTING] FTS, ΔTm [° C.] for 50 μM
Chain of human STING (Q86WV6 whole entry H232R): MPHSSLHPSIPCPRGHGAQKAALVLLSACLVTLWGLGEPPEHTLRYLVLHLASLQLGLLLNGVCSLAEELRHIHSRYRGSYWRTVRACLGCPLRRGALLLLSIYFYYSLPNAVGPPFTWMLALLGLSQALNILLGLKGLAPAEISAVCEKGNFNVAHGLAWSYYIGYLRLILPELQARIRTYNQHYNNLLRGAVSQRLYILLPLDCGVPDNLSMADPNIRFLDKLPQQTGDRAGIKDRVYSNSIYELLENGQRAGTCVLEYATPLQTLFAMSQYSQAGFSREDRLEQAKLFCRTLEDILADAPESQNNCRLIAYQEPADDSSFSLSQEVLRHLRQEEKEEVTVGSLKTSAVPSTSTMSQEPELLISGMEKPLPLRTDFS
Summary of the method: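 Human STING at a final 0.1 mg/ml was preincubated with compound for 20 min in 50 mM Hepes, 150 mM NaCl, pH 7.5, then SyproOrange dye was added. Thermal unfolding ran from 25 to 99° C at 0.033° C/s, continuous ramp. Values are reported as ΔTm (° C).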

[2] = tested on: NF-κB pathway in THP-1 dual cells; test: THP-1 Dual Reporter Assay, NF-κB pathway (SEAP reporter); assay type: cell-based; details: Homo sapiens, THP1-Dual, 18 h of stimulation, absorbance at 630 nm, read-out: THP1 Dual EC50 (μM) NFkB
Summary of the method: as §1

Molecule `COc1cc(CN(CCCn2cnc3ccccc32)Cc2c[nH]c3ccccc3c2=O)ccn1` [Example 88, 3-({[3-(1H-1,3-benzodiazol-1-yl)propyl][(2-methoxypyridin-4-yl)methyl]amino}methyl)-1,4-dihydroquinolin-4-one] has an EC50 [1] of at least 20 µM, a ΔTm at 50 µM (human STING) of over 2.5 °C and an EC50 [2] of at least 20 µM.

Molecule `COc1cc(CN(CCCn2cnc3cncnc32)Cc2cn(C)c3ccccc3c2=O)ccn1` [Example 89, 3-({[(2-methoxypyridin-4-yl)methyl][3-(9H-purin-9-yl)propyl]amino}methyl)-1-methyl-1,4-dihydroquinolin-4-one] has an EC50 [1] of at most 10 µM, a ΔTm at 50 µM (human STING) of under 2.5 °C and an EC50 [2] of at most 10 µM.

Work on `Cn1cc(CN(CCCc2cccnc2)Cc2ccnc(Cl)c2)c(=O)c2ccccc21` [Example 90, 3-({[(2-chloropyridin-4-yl)methyl][3-(pyridin-3-yl)propyl]amino}methyl)-1-methyl-1,4-dihydroquinolin-4-one] yielded an EC50 [1] of at most 10 µM, a ΔTm at 50 µM (human STING) of over 2.5 °C and an EC50 [2] of 10 to 20 µM.

`COc1cc(CN(CCCn2cnc3ncncc32)Cc2cn(C)c3ccccc3c2=O)ccn1` [Example 91, 3-({[(2-methoxypyridin-4-yl)methyl][3-(7H-purin-7-yl)propyl]amino}methyl)-1-methyl-1,4-dihydroquinolin-4-one] gave an EC50 [1] of at least 20 µM, a ΔTm at 50 µM (human STING) of under 2.5 °C and an EC50 [2] of at least 20 µM.

With `COc1cc(CN(CCCc2cc[nH]c(=O)c2)Cc2coc3c(ccc4ccccc43)c2=O)ccn1` [Example 93, 4-(3-{[(2-methoxypyridin-4-yl)methyl]({4-oxo-4H-benzo[h]chromen-3-yl}methyl)amino}propyl)-1,2-dihydropyridin-2-one] the EC50 [1] was at least 20 µM, the ΔTm at 50 µM (human STING) was over 2.5 °C and the EC50 [2] was at least 20 µM.

Molecule `COc1cc(CN(CCCc2cccnc2)Cc2nn(C)c3ccccc3c2=O)ccn1` [Example 94, 3-({[(2-methoxypyridin-4-yl)methyl][3-(pyridin-3-yl)propyl]amino}methyl)-1-methyl-1,4-dihydrocinnolin-4-one] has an EC50 [1] of at most 10 µM, a ΔTm at 50 µM (human STING) of over 2.5 °C and an EC50 [2] of at least 20 µM.

`COc1cc(CN(CCCc2cccnc2)Cc2cn(C3CC3)c3cc(F)c(F)cc3c2=O)ccn1` [Example 95, 1-cyclopropyl-6,7-difluoro-3-({[(2-methoxypyridin-4-yl)methyl][3-(pyridin-3-yl)propyl]amino}methyl)-1,4-dihydroquinolin-4-one] gave an EC50 [1] of at most 10 µM, a ΔTm at 50 µM (human STING) of over 2.5 °C and an EC50 [2] of 10 to 20 µM.

`COc1cc(CN(CCCc2cncnc2)Cc2cn(C)c3ccccc3c2=O)ccn1` [Example 96, 3-({[(2-methoxypyridin-4-yl)methyl][3-(pyrimidin-5-yl)propyl]amino}methyl)-1-methyl-1,4-dihydroquinolin-4-one] showed an EC50 [1] of at most 10 µM, a ΔTm at 50 µM (human STING) of over 2.5 °C and an EC50 [2] of at most 10 µM.

`COc1cc(CN(Cc2cn(C)c3ccccc3c2=O)C(C)CCc2cccnc2)ccn1` (stereo not drawn) [Example 97, 3-({[(2-methoxypyridin-4-yl)methyl][4-(pyridin-3-yl)butan-2-yl]amino}methyl)-1-methyl-1,4-dihydroquinolin-4-one] gave an EC50 [1] of at most 10 µM, a ΔTm at 50 µM (human STING) of over 2.5 °C and an EC50 [2] of at most 10 µM.

For `COc1cc(CN(CCCc2cccnc2)Cc2n[nH]c3ccccc3c2=O)ccn1` [Example 98, 3-({[(2-methoxypyridin-4-yl)methyl][3-(pyridin-3-yl)propyl]amino}methyl)-1,4-dihydrocinnolin-4-one], the EC50 [1] was 10 to 20 µM, the ΔTm at 50 µM (human STING) was over 2.5 °C and the EC50 [2] was at least 20 µM.

Molecule `Cc1oc2cc(F)c(F)cc2c(=O)c1CN(CCCn1cnc2ccccc21)Cc1ccncc1` [Example 99, 3-({[3-(1H-1,3-benzodiazol-1-yl)propyl][(pyridin-4-yl)methyl]amino}methyl)-6,7-difluoro-2-methyl-4H-chromen-4-one] has an EC50 [1] of at most 10 µM, a ΔTm at 50 µM (human STING) of over 2.5 °C and an EC50 [2] of at most 10 µM.

In the case of `Cc1cc(CN(CCCn2cnc3ccccc32)Cc2cn(C)c3ccccc3c2=O)ccn1` [Example 100, 3-({[3-(1H-1,3-benzodiazol-1-yl)propyl][(2-methylpyridin-4-yl)methyl]amino}methyl)-1-methyl-1,4-dihydroquinolin-4-one], the EC50 [1] was at most 10 µM, the ΔTm at 50 µM (human STING) was over 2.5 °C and the EC50 [2] was at most 10 µM.

For `Cc1cc(CN(CCCc2cccnc2)Cc2cn(C)c3ccccc3c2=O)ccn1` [Example 101, 1-methyl-3-({[(2-methylpyridin-4-yl)methyl][3-(pyridin-3-yl)propyl]amino}methyl)-1,4-dihydroquinolin-4-one], the EC50 [1] was at most 10 µM, the ΔTm at 50 µM (human STING) was over 2.5 °C and the EC50 [2] was 10 to 20 µM.

`COc1cc(CN(CCCc2ccnnc2)Cc2cn(C)c3ccccc3c2=O)ccn1` [Example 102, 3-({[(2-methoxypyridin-4-yl)methyl][3-(pyridazin-4-yl)propyl]amino}methyl)-1-methyl-1,4-dihydroquinolin-4-one] gave an EC50 [1] of at least 20 µM, a ΔTm at 50 µM (human STING) of under 2.5 °C and an EC50 [2] of at least 20 µM.

Work on `COc1cc(CN(CCCn2cc(C(N)=O)nn2)Cc2cn(C)c3ccccc3c2=O)ccn1` [Example 103, 1-(3-{[(2-methoxypyridin-4-yl)methyl][(1-methyl-4-oxo-1,4-dihydroquinolin-3-yl)methyl]amino}propyl)-1H-1,2,3-triazole-4-carboxamide] yielded an EC50 [1] of at least 20 µM, a ΔTm at 50 µM (human STING) of under 2.5 °C and an EC50 [2] of at least 20 µM.
